The values below come from ChEMBL document CHEMBL1201862, “PubChem BioAssay data set” (2004).

Holding throughout (assay): growth of human tumour cells (NCI), 48 h
Experiment [1] has as its system SNB-75.
Experiment [2] relates to OVCAR-3.
Experiment [3] concerns HCT-116.
Experiment [4] relates to RXF 393.
Experiment [5] deals with M14.
Experiment [6] has as its system SK-OV-3.
In experiment [7] the test system is NCI-H460.
Experiment [8] has as its system CCRF-CEM.
Experiment [9] has as its system Hs-578T.
Experiment [10] relates to MDA-MB-435.
For experiment [11], the system named is HCT-15.
Experiment [12] has as its system U-251.
For experiment [13], the system named is UACC-62.
Experiment [14] relates to CAKI-1.
The test system of experiment [15] is 786-0.
The subject of experiment [16] is BT-549.
The test system of experiment [17] is SF-539.
The subject of experiment [18] is TK-10.
Experiment [19] concerns NCI-H522.

SMILES strings stand for the structures.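 Each compound was tested at five concentrations against cells in 96-well plates for 48 hours. Here, GI50 denotes the concentration required for 50% inhibition of growth.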 Active and inactive are the calls of the source. Cut-off read from the data, not from the text of the source: active = GI50 up to about 1.1 µM and inactive = higher.

As for `COc1ccc(-c2nc(O)c3ccccc3n2)c(OC)c1`, the GI50 in experiment [1], in experiment [2], in [3], in experiment [4], in experiment [5] and in experiment [6] was > 100 µM (inactive) each time. The GI50 in [7] is > 100 µM (inactive); in experiment [8] it was > 100 µM (inactive); in experiment [9] it was > 100 µM (inactive); in [10], > 100 µM (inactive); in experiment [11], > 100 µM; in [12] it was > 100 µM (inactive). In addition, the GI50 in experiment [13], in [14], in experiment [15] and in [16] was > 100 µM (inactive) throughout.

As to `COc1ccc2c(c1)CCc1[nH]c3ccccc3c1CCCC2`, the GI50 in experiment [1], in experiment [2], in experiment [3], in [17], in experiment [5] and in experiment [6] was > 10 µM (inactive) each time. Also, the GI50 in experiment [8] is > 10 µM (inactive); in experiment [9] it was > 10 µM (inactive); in experiment [18], > 10 µM (inactive); in experiment [10] it was > 10 µM (inactive); in experiment [11], > 10 µM; in experiment [12] it was > 10 µM (inactive). Further, the GI50 in [13], in experiment [14], in experiment [19], in experiment [15] and in experiment [16] was > 10 µM (inactive) in each case.

Regarding `CC1=C(C(=O)OCCO[N+](=O)[O-])C(c2cccc([N+](=O)[O-])c2)C(C(=O)OC(C)C)=C(C)N1` (stereo not given), the GI50 is 10.4 µM (inactive) in experiment [2]; 10.5 µM (inactive) in experiment [3]; 14.2 µM (inactive) in experiment [17]; 13.8 µM (inactive) in experiment [4]; 16 µM (inactive) in [5]; 16.7 µM (inactive) in experiment [6]. Moreover, the GI50 in experiment [7] is 13.8 µM (inactive); in experiment [8] it was 29.9 µM (inactive); in experiment [9] it was 7.71 µM (inactive); in experiment [18] it was 14.9 µM (inactive); in experiment [10], 15.2 µM (inactive); in experiment [11] it was 14.1 µM. The GI50 in experiment [12] is 14.9 µM (inactive); in experiment [13], 14.5 µM (inactive); in [14], 17.6 µM (inactive); in [19], 17.8 µM (inactive); in [15], 13.3 µM (inactive); in [16] it was 14 µM (inactive).

For `CC(=O)O[C@H]1[C@H](OC(C)=O)[C@@H](CN=[N+]=[N-])OCO[C@@H]1CN=[N+]=[N-]`, the GI50 in experiment [1], in [3], in [17], in [4], in experiment [5] and in experiment [6] was > 100 µM (inactive) in each case. For the same compound, the GI50 was > 100 µM (inactive) in experiment [7]; > 100 µM (inactive) in experiment [8]; < 0.01 µM (active) in experiment [9]; > 100 µM (inactive) in experiment [18]; > 100 µM (inactive) in experiment [10]; > 100 µM in [11]. The GI50 in experiment [12], in experiment [13], in [19], in experiment [15] and in experiment [16] was > 100 µM (inactive) in each case.

As for `Brc1cccc(Nc2ncnc3sc4c(c23)CCC2(C4)OCCO2)c1`, the GI50 in experiment [1] was 23.1 µM (inactive); in experiment [2] it was 28.4 µM (inactive); in experiment [3], 27.2 µM (inactive); in experiment [5], 31.1 µM (inactive); in experiment [6], 32.1 µM (inactive); in experiment [7], 33.3 µM (inactive). In addition, the GI50 in experiment [9] was 28.4 µM (inactive); in experiment [18], 7.73 µM (inactive); in experiment [10], 28.2 µM (inactive); in experiment [11] it was 25.4 µM; in experiment [12] it was 35.6 µM (inactive); in [13], 22.9 µM (inactive). The GI50 in experiment [14] was 10.5 µM (inactive); in [19], 12.3 µM (inactive); in experiment [15], 25.7 µM (inactive); in experiment [16], 27.5 µM (inactive).

In the case of `N#CC(c1ccccc1)N(CCOCCOCCN(C(=O)c1cccc2ccccc12)C(C#N)c1ccccc1)C(=O)c1cccc2ccccc12` (stereo not given), the GI50 was > 100 µM (inactive) in experiment [1]; > 100 µM (inactive) in [2]; 9.55 µM (inactive) in experiment [3]; > 100 µM (inactive) in experiment [17]; > 100 µM (inactive) in experiment [4]; > 100 µM (inactive) in experiment [5]. Moreover, the GI50 in experiment [6] was > 100 µM (inactive); in experiment [7] it was 87.1 µM (inactive); in experiment [8], > 100 µM (inactive); in experiment [9], > 100 µM (inactive); in experiment [18], > 100 µM (inactive); in experiment [10], > 100 µM (inactive). Further, the GI50 in [11] is > 100 µM; in experiment [12], > 100 µM (inactive); in [13] it was > 100 µM (inactive); in experiment [14], > 100 µM (inactive); in [15], > 100 µM (inactive); in [16], > 100 µM (inactive).

For `CC12CC3OC(=O)C1COC14OC5(C2C1=O)C(O)(CCC1C4CC(O)C2(O)CC=CC(=O)C12C)C(=O)OC35C` (stereo not given), the GI50 in experiment [1], in experiment [2], in [3], in [17], in experiment [5] and in [6] was > 100 µM (inactive) throughout. Besides, the GI50 in experiment [7] was > 100 µM (inactive); in experiment [8] it was > 100 µM (inactive); in experiment [9], > 100 µM (inactive); in experiment [18], > 100 µM (inactive); in experiment [10] it was 68.4 µM (inactive); in [11], > 100 µM. Besides, the GI50 in experiment [12], in experiment [13], in experiment [14], in [19], in experiment [15] and in experiment [16] was > 100 µM (inactive) in each case.

Take `Cc1n[nH]c(=O)n1Nc1ccccc1`: the GI50 in [1], in experiment [2], in [3], in experiment [17], in [5] and in experiment [6] was > 100 µM (inactive) in each case. Also, the GI50 in experiment [7] was > 100 µM (inactive); in experiment [8] it was > 100 µM (inactive); in experiment [9] it was > 100 µM (inactive); in [10], > 100 µM (inactive); in experiment [11], > 100 µM; in experiment [12] it was > 100 µM (inactive). The GI50 in experiment [13], in experiment [14], in [19], in [15] and in experiment [16] was > 100 µM (inactive) in each case.

`COc1c(O)cc(/C=C/c2cc(O)cc3c2[C@@]2(C(=O)O3)c3c(O)cc(O)cc3OC2c2cccc(O)c2)cc1O` (stereo not given in full): the GI50 was 54 µM (inactive) in [2]; 51.6 µM (inactive) in experiment [3]; 39.4 µM (inactive) in experiment [17]; 52.2 µM (inactive) in [4]; 95.3 µM (inactive) in experiment [5]; 28.2 µM (inactive) in [6]. Also, the GI50 in experiment [7] was 11.3 µM (inactive); in [8], 30.5 µM (inactive); in experiment [9] it was 72.8 µM (inactive); in experiment [18] it was 95.9 µM (inactive); in [10] it was 54.3 µM (inactive); in [11] it was 30.5 µM. Besides, the GI50 in experiment [12] is 41.4 µM (inactive); in experiment [13] it was 30.4 µM (inactive); in experiment [14], 98.4 µM (inactive); in experiment [19] it was 34.8 µM (inactive); in [15], 68.7 µM (inactive); in experiment [16], 23.7 µM (inactive).

For the compound `O=C1/C(=C/c2ccc(O)c(CN3CCCCC3)c2)CCC/C1=C\c1ccc(O)c(CN2CCCCC2)c1`, the GI50 in experiment [1] is 2.27 µM (inactive); in experiment [2] it was 5.12 µM (inactive); in experiment [3] it was 2.4 µM (inactive); in [4], 3.24 µM (inactive); in [5], 16.1 µM (inactive); in [6], 8.53 µM (inactive). In addition, the GI50 in experiment [7] was 3.05 µM (inactive); in experiment [8], 3.32 µM (inactive); in [9] it was 8.24 µM (inactive); in experiment [18] it was 6.17 µM (inactive); in experiment [10] it was 4.66 µM (inactive); in experiment [11] it was 5.37 µM. Further, the GI50 was 5.22 µM (inactive) in [12]; 16 µM (inactive) in [13]; 18.8 µM (inactive) in experiment [14]; 3.52 µM (inactive) in [15]; 10.4 µM (inactive) in experiment [16].

Regarding `COc1ccc(NC(=O)C2=C(SC)C(=O)N=C2N)cc1`, the GI50 in [1], in experiment [3], in experiment [4], in experiment [6], in experiment [7] and in [8] was > 100 µM (inactive) throughout. Also, the GI50 in experiment [9] was > 100 µM (inactive); in [18] it was > 100 µM (inactive); in experiment [10] it was > 100 µM (inactive); in experiment [11], > 100 µM; in [12] it was > 100 µM (inactive); in [13] it was > 100 µM (inactive). Moreover, the GI50 in [14], in [15] and in experiment [16] was > 100 µM (inactive) in each case.

Take `Cc1ccc(NCc2nnc3c(-c4ccccc4)nc4ccccc4n23)cc1`: the GI50 in experiment [2] was 49.7 µM (inactive); in [3], 21.5 µM (inactive); in experiment [17] it was 60.5 µM (inactive); in [4], 34.8 µM (inactive); in [5], 37.6 µM (inactive); in experiment [6], 40.6 µM (inactive). The GI50 in [7] is 28.8 µM (inactive); in experiment [8], 15.1 µM (inactive); in experiment [9], 50.7 µM (inactive); in [18], 43.9 µM (inactive); in [10] it was 29.6 µM (inactive); in experiment [11], 38.5 µM. For the same compound, the GI50 in experiment [12] is 16.7 µM (inactive); in experiment [13], 33.7 µM (inactive); in [14] it was 30.1 µM (inactive); in experiment [19], 16 µM (inactive); in experiment [15], 27.9 µM (inactive); in [16], 37.4 µM (inactive).
